Holding throughout (assay type): in vivo
The test system of experiment [1] is memory decline evoked by maximal electroshock (MES) in randomly bred male albino rats. Description: Passive avoidance step-through, amnesia by maximal electroshock (MES). The following applies: for inhibition in vivo at 0.1 mg/kg: Rattus norvegicus, ip, 24 h, read-out: AA % (antiamnestic activity, Butler's modified formula); for inhibition in vivo at 0.1 mg/kg / Latency (sec.) Amnesia + subst. / AA % (antiamnestic activity, Butler's modified formula): 0.1 mg/kg i.p. 15 min before training; for Latency (sec.) Amnesia + subst.: MES after learning, retention 24 h later. As to the method: (§1) Compounds according to the present invention, including the compounds described in Examples 1-11, were checked for their ability to prevent memory decline evoked by maximal electroshock (MES) or scopolamine in the passive avoidance step-through paradigm (equipment of Laffaette Co., USA). The experiments described herein (Examples 12, 13, 15, and 19) were carried out using randomly bred male albino rats of a weight of approximately 180-220 g. […] Amnesia was produced by transcorneal maximal electroshock immediately after learning or scopolamine (1 mg/kg, subcutaneously) administration 30 min. before learning. The retention was tested 24 hours later by the measurement of latency of the entering of the dark compartment.
(§2) The degree of antiamnestic activity was estimated according to Buttler's modified formula: [formula]
(§3) The higher the magnitude of this indicator the more is the antiamnestic activity.
For orientation: In the maximal electroshock model the usual endpoint is tonic extension of the hind limbs.

Experiment [2] deals with memory decline evoked by scopolamine in randomly bred male albino rats. The experiment can be described thus: Passive avoidance step-through, amnesia by scopolamine. As to the method:
as §1, §2, §3

Experiment [3] relates to phenazepam withdrawn male albino rats. The experiment can be described thus: Threshold of aggressive behavior during phenazepam withdrawal. Conditions: immediately after the last administration of phenazepam (2 mg/kg i.p. daily for 57 days). As to the method:
The influence of Compound I on withdrawal syndrome caused by the interruption of chronic administration of benzodiazepine tranquilizer phenazepam (T. A. Voronina et al., In Fenazepam; A. V. Bogatsky, Ed.; Naukova dumka Publishers: Kiev, 1982; pp. 67-169) was studied in experiments on male albino rats weighing 190-200 g at the beginning and 300-350 g at the end of the experiment.
Phenazepam (2 mg/kg intraperitoneally) or saline (control group of rats) were given once daily for 57 days. The withdrawal syndrome occurred 24-72 hours after the last injection. The withdrawal syndrome in rats consisted in "anxiogenic-like" state aggressiveness and accelerated development of kindled seizures caused by pentylentetrazol. Compound I was administered to the withdrawn rats in doses of 0.5 mg/kg intraperitoneally 15 minutes prior to testing.
The threshold of the aggressive behavior was determined in the experiment on the rats (R. Tedeshi et al., J. Pharmacol. Exp. Ther., 125, 28-34 (1959)). The paired rats were placed on the electrified floor; the strength of the current, which provokes the fighting, was registered.

The subject of experiment [4] is undertraining of the passive avoidance reflex, rats. The experiment can be described thus: Passive avoidance with undertraining, different regimes of administration. Conditions: 200 mg/kg i.p.
A short description of experiment [5]: Level of active dose for the described nootropic activities. Conditions: above-described nootropic activities. As to the method: The compounds of the present invention were assessed for their ability to prevent memory impairment induced by maximal electroshock, or scopolamine administration. Unlike N-acylpyrrolidine compounds of the type described by Tanaka et al., supra, the compounds of the present invention are not believed to inhibit prolyl endopeptidase activity. […] The Compound I prevents mental decline, induced by frontal lobectomy (Example 15), prenatal alcoholization or prenatal hypoxia (Example 16) and aging (Example 17).
In contrast to this, substances in accordance with the present invention exert their effects in a dose between about 0.1-0.5 mg/kg.

Where [6] appears, read: 0.1 mg/kg 15 min before learning, scopolamine 1 mg/kg s.c.
Where [7] appears, read: 0.1 mg/kg 15 min before learning, scopolamine 1 mg/kg s.c. 30 min before trial.
The mark [8] stands for this setting: 200 mg/kg, scopolamine 1 mg/kg s.c.

Where a SMILES comes first, the peptide text is derived from it. The star is where a group is joined. Isovaleryl = CC(C)CC(=O)*; Hexanoyl = CCCCCC(=O)*; PhAc = O=C(Cc1ccccc1)*; Bz = O=C(c1ccccc1)*

On to `NC(=O)CNC(=O)[C@@H]1CCCN1C(=O)c1ccccc1` [XIII, N-benzoyl-L-prolylglycine amide] (Bz-Pro-Gly-NH2), for which, in experiment [1] (MES amnesia), the inhibition in vivo at 0.1 mg/kg is -17.6%.
As for `CCOC(=O)CCNC(=O)[C@@H]1CCCN1C(=O)c1ccccc1` [XI, N-benzoyl-L-prolyl-β-alanine ethyl ester], the inhibition in vivo at 0.1 mg/kg in experiment [1] (MES amnesia) was determined as 21.9%.
Same read-out and setting: as for `CNC(=O)CNC(=O)[C@@H]1CCCN1C(=O)Cc1ccccc1` [XIV, N-phenylacetyl-L-prolylglycine N-methylamide] (PhAc-Pro-Gly-NHMe), the figure is -7.6%; as for `CCOC(=O)CNC(=O)[C@@H]1CCCN1CCCCc1ccccc1` [XXIII, N-phenylbutyl-L-prolyl-glycine ethylester], 12.6%; as for `CCOC(=O)[C@@H](NC(=O)[C@@H]1CCCN1C(=O)c1ccccc1)C(C)C` [X, N-benzoyl-L-prolyl-L-valine ethyl ester] (Bz-Pro-Val-OEt), 38%.
The same measure, in the same setting: as for `CCOC(=O)CNC(=O)[C@@H]1CCCN1C(=O)c1ccccc1` [VII, N-benzoyl-L-prolylglycine ethyl ester] (Bz-Pro-Gly-OEt), the figure is 37%; as for `CC(C)C[C@H](NC(=O)[C@@H]1CCCN1C(=O)Cc1ccccc1)C(N)=O` [XVII, N-phenylacetyl-L-prolyl-L-leucine amide] (PhAc-Pro-Leu-NH2), 7.9%.
On the same count and under the same terms, as for `CCOC(=O)CNC(=O)[C@@H]1CCCN1C(=O)CC(C)C` [VIII, N-isovaleryl-L-prolylglycine ethyl ester] (Isovaleryl-Pro-Gly-OEt), the figure is 28%; as for `CN(C)C(=O)CNC(=O)[C@@H]1CCCN1C(=O)Cc1ccccc1` [XV, N-phenylacetyl-L-prolylglycine dimethylamide] (PhAc-Pro-Gly-NMe2), 23%.
Take `CCOC(=O)[C@H](C)NC(=O)[C@@H]1CCCN1C(=O)Cc1ccccc1` [XX, N-phenylacetyl-L-prolyl-L-alanine ethyl ester] (PhAc-Pro-Ala-OEt): the inhibition in vivo at 0.1 mg/kg in experiment [1] (MES amnesia) is 10.8%.
For `CCOC(=O)[C@@H](NC(=O)[C@@H]1CCCN1C(=O)Cc1ccccc1)C(C)C` [IX, N-phenylacetyl-L-prolyl-L-valine ethyl ester] (PhAc-Pro-Val-OEt), the inhibition in vivo at 0.1 mg/kg in experiment [1] (MES amnesia) was 0.0001%.
For `NC(=O)CNC(=O)[C@@H]1CCCN1C(=O)Cc1ccccc1` [II, N-phenacetyl-L-prolylglycine amide] (PhAc-Pro-Gly-NH2), the “Latency (sec.) Amnesia + subst.” value in experiment [1] was found to be 56 s. For the same molecule, the “AA % (antiamnestic activity, Butler's modified formula)” value in experiment [1] (MES amnesia) amounted to 27%. Besides, the “Aa (antiamnestic activity)” value in experiment [2] (setting [6]) is -9.0. For the same molecule, the “Latency (sec.) Scopolamine + substance” value in experiment [2] (setting [7]) turned out to be 45.6 s.
For `NC(=O)CCNC(=O)[C@@H]1CCCN1C(=O)Cc1ccccc1` [IV, N-phenylacetyl-L-prolyl-β-alanine amide], the inhibition in vivo at 0.1 mg/kg in experiment [1] (MES amnesia) amounted to 52%. In experiment [2] (setting [6]), the “Aa (antiamnestic activity)” value was determined as 52.1. In experiment [2] (setting [7]), the “Latency (sec.) Scopolamine + substance” value worked out at 94.9 s.
With `CCCCCC(=O)N1CCC[C@H]1C(=O)NCC(=O)OCC` [XXI, N-caproyl-L-prolylglycine ethyl ester] (Hexanoyl-Pro-Gly-OEt), the inhibition in vivo at 0.1 mg/kg in experiment [1] (MES amnesia) worked out at 20.2%.
`NC(=O)C[C@H](NC(=O)[C@@H]1CCCN1C(=O)Cc1ccccc1)C(N)=O` [VI, N-phenylacetyl-L-prolyl-L-asparagine amide] (PhAc-Pro-Asn-NH2): the inhibition in vivo at 0.1 mg/kg in experiment [1] (MES amnesia) was found to be 26%. In addition, the “Aa (antiamnestic activity)” value in experiment [2] (setting [6]) is on record as -4.3. Besides, the “Latency (sec.) Scopolamine + substance” value in experiment [2] (setting [7]) worked out at 46.3 s.
Take `NC(=O)CCNC(=O)[C@@H]1CCCN1C(=O)c1ccccc1` [XII, N-benzoyl-L-prolyl-β-alanine amide]: in experiment [1] (MES amnesia), the inhibition in vivo at 0.1 mg/kg came out at 15.2%.
As for `CCOC(=O)CCNC(=O)[C@@H]1CCCN1C(=O)Cc1ccccc1` [III, N-phenacetyl-L-prolyl-β-alanine ethyl ester], in experiment [1], the “Latency (sec.) Amnesia + subst.” value was 56 s. Also, the “AA % (antiamnestic activity, Butler's modified formula)” value in experiment [1] (MES amnesia) worked out at 29%. For the same molecule, the “Aa (antiamnestic activity)” value in experiment [2] (setting [6]) worked out at 23.7. For the same molecule, the “Latency (sec.) Scopolamine + substance” value in experiment [2] (setting [7]) is 78.6 s.
In the case of `O=C1CN=C(c2ccccc2Cl)c2cc(Br)ccc2N1` [Phenazepam, reference compound], the “Aggression Threshold (mA)” value in experiment [3] is given as 2.16 ± 0.2 mA.
Regarding `NC(=O)CN1CCCC1=O` [Piracetam, N-carbamido-methyl-pyrrolidone-2, reference compound], the “AA % (antiamnestic activity)” value in experiment [1] (200 mg/kg, MES amnesia) was found to be 30.5%. Further, in experiment [2] (setting [8]), the “Aa (antiamnestic activity)” value worked out at 39.3 and the “Latency (sec.) Scopolamine + substance” value turned out to be 64.2 s. Moreover, in experiment [4], the “Mnestic activity (Ma), administration 15 min. before retrieval” value is on record as -15%; the “Mnestic activity (Ma), administration 15 min. before trial” value is reported as 20.0%; the “Mnestic activity (Ma), administration immediately after trial” value is 1.0%. Also, the “Level of active dose” value in experiment [5] is 200 to 800 mg/kg.
On to `CCOC(=O)CC[C@H](NC(=O)[C@@H]1CCCN1C(=O)Cc1ccccc1)C(=O)OCC` [XVI, N-phenylacetyl-L-prolyl-L-glutamic acid diethyl ester] (PhAc-Pro-Glu(OEt)-OEt), for which the inhibition in vivo at 0.1 mg/kg in experiment [1] (MES amnesia) is 58.3%.
On the same count and under the same terms, as for `O=C(O)CNC(=O)[C@@H]1CCCN1C(=O)Cc1ccccc1` [XVIII, N-phenylacetyl-L-prolylglycine] (PhAc-Pro-Gly-OH), the figure is 9.8%.
Turning to `CCOC(=O)C[C@H](NC(=O)[C@@H]1CCCN1C(=O)Cc1ccccc1)C(=O)OCC` [V, N-phenylacetyl-L-prolyl-L-aspartic acid diethyl ester] (PhAc-Pro-Asp(OEt)-OEt), the inhibition in vivo at 0.1 mg/kg in experiment [1] (MES amnesia) was 29.5%. The “Aa (antiamnestic activity)” value in experiment [2] (setting [6]) is recorded as -10. The “Latency (sec.) Scopolamine + substance” value in experiment [2] (setting [7]) stood at 48.1 s.
Take `COC(=O)CCCNC(=O)[C@@H]1CCCN1C(=O)Cc1ccccc1` [XIX, N-phenylacetyl-L-prolyl-GABA methylester]: in experiment [1], the “Latency (sec.) Amnesia + subst.” value turned out to be 95.8 s. In addition, in experiment [1] (MES amnesia), the “AA % (antiamnestic activity, Butler's modified formula)” value came to 45.4%.

The values are drawn from patent US5439930A, “Biologically active n-acylprolydipeptides having antiamnestic, antihypoxic and anorexigenic effects” (Russian-American Institute for New Drug Development, priority 1992, dated 1995).
